For one data set, the species on record is Homo sapiens. As to the kind of experiment: Protein binding in human plasma assessed as free drug level. The note with it: read-out: PPB.
In data set [1] the test system is Hepatitis C virus. As to the kind of experiment: Antiviral activity against HCV in Huh7 cells assessed as inhibition of viral replication in presence of 10% fetal calf serum. It counts as functional, organism-based, Hepacivirus hominis. Particulars: Huh-7.
The nature of data set [2]: Inhibition of HCV NS5B deltaC RNA polymerase. Also on record: species or system Hepacivirus hominis.
A short description of data set [3]: Oral bioavailability in rat at 3 mg/kg. It counts as ADME, organism-based. The note with it: in vivo.
Data set [4] in a line: Terminal phase half life in rat at 3 mg/kg, iv. On the set-up: dose 3 mg/kg, route intravenous. Particulars: in vivo. Type of data set: ADME, organism-based.
Data set [5] can be described thus: AUC in rat at 3 mg/kg, po. It counts as ADME, organism-based. On the set-up: dose 3 mg/kg, route oral. The note with it: plasma.
The nature of data set [6]: Dissociation constant, pKa of the compound. Type of data set: physicochemical.
A short description of data set [7]: Plasma clearance in rat at 3 mg/kg, po or 3 mg/kg, iv. Type of data set: ADME, organism-based.
Data set [8] in a line: Cytotoxicity against Huh7 cells. The note with it: human. It counts as cell-based, Huh-7.
The subject of data set [9] is Hepatitis C virus. As to the kind of experiment: Antiviral activity against HCV in Huh7 cells assessed as inhibition of viral replication in absence of serum. Type of data set: functional, organism-based, Hepacivirus hominis. Particulars: Huh-7.

Calls of active or inactive are those of the source. No cut-off for these calls is given here.

We go through 28 molecules from ChEMBL document CHEMBL1139776, “Development of carboxylic acid replacements in indole-N-acetamide inhibitors of hepatitis C virus NS5B polymerase” (Bioorg Med Chem Lett, 2007).

What is called EC50 is the concentration needed to bring the measured effect to its halfway point. By IC50 is commonly meant the concentration at which inhibition is half-maximal. Low values mean greater potency in that assay, high ones weaker potency in that assay. In the case of `CN(C)C(=O)Cn1c(-c2ccoc2)c(C2CCCCC2)c2ccc(C(=O)NS(=O)(=O)N(C)C)cc21`, in the data set filed under Homo sapiens, the fraction unbound amounted to 0.011. Besides, in the data set with Hepatitis C virus [1], the EC50 was determined as 380 nM. The IC50 in [2] stood at 14 nM.

With `CN(C)C(=O)Cn1c(-c2ccccc2)c(C2CCCCC2)c2ccc(C(=O)NS(=O)(=O)CC(=O)O)cc21`, the EC50 with Hepatitis C virus [1] worked out at 1600 nM. This molecule yielded an IC50 in data set [2] of 29 nM.

`COc1cccc(-c2c(C3CCCCC3)c3ccc(-c4noc(=O)[nH]4)cc3n2CC(=O)N2CCC(N(C)C)CC2)c1`: the EC50 in the data set with Hepatitis C virus [1] came to 3700 nM. For the same molecule, 67 nM corresponded to half-maximal inhibition in data set [2] (IC50).

In the case of `CN(C)C1CCN(C(=O)Cn2c(-c3ccc(Cl)cc3)c(C3CCCCC3)c3ccc(-c4noc(=O)[nH]4)cc32)CC1`, the EC50 in the data set with Hepatitis C virus [1] is 1900 nM. This molecule had an IC50 in data set [2] of 17 nM.

For orientation: bioavailability means the share of a dose that reaches the circulation, judged against a reference dose that is usually intravenous. Regarding `CN(C)C(=O)Cn1c(-c2ccccc2)c(C2CCCCC2)c2ccc(-c3noc(=O)[nH]3)cc21.O=C(O)C(F)(F)F`, in data set [3], the bioavailability came to 20%.

Take `CCS(=O)(=O)NC(=O)c1ccc2c(C3CCCCC3)c(-c3ccc(OC)cc3)n(CC(=O)N(C)C)c2c1`: the EC50 with Hepatitis C virus [1] was 1500 nM. Further, in data set [2], half-maximal inhibition (IC50) was put at 11 nM.

As a reminder, the half-life is the time in which the quantity being followed falls by half. A higher half-life goes with slow decline. Usually AUC stands for concentration integrated over time. Read a low AUC as less exposure. Usually pKa stands for the negative logarithm of the acid dissociation constant. In the case of `CN(C)C(=O)Cn1c(-c2ccccc2)c(C2CCCCC2)c2ccc(-c3noc(=O)[nH]3)cc21`, in data set [4], the half-life was 13 h. In addition, the fraction unbound in the data set listed under Homo sapiens amounted to 0.001. The AUC in data set [5] was determined as 2 µM·h. In addition, in the data set with Hepatitis C virus [1], the EC50 is 4400 nM. The IC50 in data set [2] was determined as 68 nM. In addition, in [6], the pKa was 4.8. In addition, in [7], the clearance was determined as 12 mL/min/kg.

Consider `CN1CCC(N(C)C(=O)Cn2c(-c3ccccc3)c(C3CCCCC3)c3ccc(-c4noc(=O)[nH]4)cc32)C1` (stereo unspecified), for which the EC50 with Hepatitis C virus [1] was 1600 nM. In data set [2], this molecule registered an IC50 of 75 nM.

Turning to `CN(C)C(=O)Cn1c(-c2ccccc2)c(C2CCCCC2)c2ccc(C(=O)O)cc21.O=C(O)C(F)(F)F`, the bioavailability in data set [3] came to 45%.

Turning to `CCS(=O)(=O)NC(=O)c1ccc2c(C3CCCCC3)c(-c3ccoc3)n(CC(=O)N(C)C)c2c1`, in the data set filed under Homo sapiens, the fraction unbound came out at 0.008. Also, the EC50 with Hepatitis C virus [1] is 1500 nM. Moreover, the IC50 in [2] stood at 22 nM.

`CN(C)C1CCN(C(=O)Cn2c(-c3ccccc3F)c(C3CCCCC3)c3ccc(-c4noc(=O)[nH]4)cc32)CC1`: the EC50 with Hepatitis C virus [1] stood at 2400 nM. This molecule also gave an IC50 in data set [2] of 53 nM.

What is called CC50 is the concentration giving 50% cytotoxicity. The molecule `CCN(CC)C1CCN(C(=O)Cn2c(-c3ccoc3)c(C3CCCCC3)c3ccc(C(=O)NS(=O)(=O)N(C)C)cc32)CC1` yielded a CC50 in data set [8] of 50000 nM. In addition, the EC50 with Hepatitis C virus [1] worked out at 120 nM. The same molecule returned an IC50 in data set [2] of 4 nM.

Consider `CN(C)CCS(=O)(=O)NC(=O)c1ccc2c(C3CCCCC3)c(-c3ccccc3)n(CC(=O)N(C)C)c2c1`, for which the fraction unbound in the data set filed under Homo sapiens came to 0.019. Further, the results for the EC50 in the data set with Hepatitis C virus [9] and with Hepatitis C virus [1] were 2000 nM and 5400 nM, respectively. In data set [2], this molecule had an IC50 of 31 nM.

Turning to `CN1CCCC(CN(C)C(=O)Cn2c(-c3ccccc3)c(C3CCCCC3)c3ccc(-c4noc(=O)[nH]4)cc32)C1` (stereo unspecified), the fraction unbound in the data set filed under Homo sapiens was 0.021. The EC50 with Hepatitis C virus [1] amounted to 1100 nM. Inhibition in [2] was half-maximal at 47 nM (IC50).

On to `CN(C)C1CCN(C(=O)Cn2c(-c3cnn(C)c3)c(C3CCCCC3)c3ccc(-c4noc(=O)[nH]4)cc32)CC1`, for which the fraction unbound in the data set listed under Homo sapiens was determined as 0.094. For the same molecule, the EC50 with Hepatitis C virus [1] was more than 50000 nM. In data set [2], this molecule had an IC50 of 170 nM.

As to `CN(C)C(=O)Cn1c(-c2ccoc2)c(C2CCCCC2)c2ccc(C(=O)NS(=O)(=O)CC(=O)O)cc21`, the fraction unbound in the data set listed under Homo sapiens is 0.01. Besides, the half-maximal effective concentration (EC50) in the data set on Hepatitis C virus [1] worked out at 560 nM. Besides, the IC50 in data set [2] is 19 nM.

For the molecule `CN(C)C(=O)Cn1c(-c2ccccc2)c(C2CCCCC2)c2ccc(C(=O)NS(=O)(=O)N(C)C)cc21`, in the data set listed under Homo sapiens, the fraction unbound is 0.008. Also, in the data set on Hepatitis C virus [1], the EC50 is 710 nM. The same molecule returned a half-inhibitory concentration (IC50) in data set [2] of 9 nM.

In the case of `CN(C)C(=O)Cn1c(-c2ccccc2)c(C2CCCCC2)c2ccc(C(=O)NS(=O)(=O)Cc3ccccc3)cc21`, the fraction unbound in the data set listed under Homo sapiens was less than 0.001. The EC50 with Hepatitis C virus [9] came out at 150 nM; in the data set with Hepatitis C virus [1], 5000 nM. Moreover, the IC50 in data set [2] amounted to 31 nM.

With `CN(C)C(=O)Cn1c(-c2ccccc2)c(C2CCCCC2)c2ccc(C(=O)N(C)S(=O)(=O)Cc3ccccc3)cc21`, the fraction unbound in the data set listed under Homo sapiens worked out at 0.001. Also, in the data set with Hepatitis C virus [1] (Hepacivirus hominis), the result was inactive. This molecule gave an IC50 in data set [2] of 640 nM.

In the case of `CN(C)C1CCN(C(=O)Cn2c(-c3ccccc3)c(C3CCCCC3)c3ccc(-c4noc(=O)[nH]4)cc32)CC1`, the EC50 in the data set with Hepatitis C virus [1] was 1300 nM. Further, in data set [2], the half-maximal inhibitory concentration (IC50) turned out to be 59 nM.

`CN(C)C(=O)Cn1c(-c2cccnc2)c(C2CCCCC2)c2ccc(-c3noc(=O)[nH]3)cc21`: in the data set with Hepatitis C virus [1], the EC50 was 20000 nM. This molecule also showed an IC50 in data set [2] of 780 nM.

In turn, `CN(C)C(=O)Cn1c(-c2ccccc2)c(C2CCCCC2)c2ccc(C(=O)O)cc21` gave a half-life in data set [4] of 5 h. In data set [5], this molecule came in with an AUC of 2 µM·h. The EC50 in the data set on Hepatitis C virus [1] amounted to 1500 nM. Further, in [2], the IC50 was determined as 86 nM. The pKa in [6] came to 4.8. Further, the clearance in data set [7] stood at 32 mL/min/kg.

For `Cc1ccccc1-c1c(C2CCCCC2)c2ccc(-c3noc(=O)[nH]3)cc2n1CC(=O)N1CCC(N(C)C)CC1`, the EC50 with Hepatitis C virus [1] came to 17000 nM. Half-maximal inhibition in data set [2] (IC50) was put at 300 nM.

On to `CN(C)CC1CN(C(=O)Cn2c(-c3ccoc3)c(C3CCCCC3)c3ccc(-c4noc(=O)[nH]4)cc32)CCO1` (stereo unspecified), for which the EC50 with Hepatitis C virus [1] stood at 1100 nM. Further, the IC50 in data set [2] was determined as 26 nM.

Regarding `CCN(CC)CC1CN(C(=O)Cn2c(-c3ccc(OC)cc3)c(C3CCCCC3)c3ccc(C(=O)NS(=O)(=O)CC)cc32)CCO1` (stereo unspecified), in [8], the midpoint of cytotoxicity, the CC50, lay at 50000 nM. In addition, the EC50 in the data set on Hepatitis C virus [1] amounted to 340 nM. The half-inhibitory concentration (IC50) in data set [2] was determined as 9 nM.

For the molecule `CN(C)C(=O)Cn1c(-c2ccccc2)c(C2CCCCC2)c2ccc(C(=O)NS(=O)(=O)c3ccccc3)cc21`, the fraction unbound in the data set filed under Homo sapiens stood at 0.003. Moreover, the EC50 came out at 130 nM with Hepatitis C virus [9] and 3900 nM in the data set on Hepatitis C virus [1]. For the same molecule, in [2], half-maximal inhibition (IC50) was put at 11 nM.

For the molecule `CCS(=O)(=O)NC(=O)c1ccc2c(C3CCCCC3)c(-c3ccccc3)n(CC(=O)N(C)C)c2c1`, the half-life in data set [4] was 2 h. For the same molecule, the values for the EC50 in the data set with Hepatitis C virus [9] and with Hepatitis C virus [1] were 520 nM and 2100 nM, respectively. This molecule displayed an AUC in data set [5] of 1 µM·h. In addition, the IC50 in data set [2] came out at 46 nM. In data set [7], this molecule showed a clearance of 51 mL/min/kg.

In data set [3], `CCS(=O)(=O)NC(=O)c1ccc2c(C3CCCCC3)c(-c3ccccc3)n(CC(=O)N(C)C)c2c1.O=C(O)C(F)(F)F` gave a bioavailability of 24%.
